In patent publication US20100125073A1, “BENZOFURAN AND BENZOTHIOPHENE DERIVATIVES USEFUL IN THE TREATMENT OF CANCERS OF THE CENTRAL NERVOUS SYSTEM” (priority 2006, published 2010):
Blank lines part the entries; values can stand above or below the compound they belong to.

Experiments:
[1] = Solubility in aqueous 5% dextrose; assay type: physicochemical; conditions: for solubility thermodynamic at 24 h: saline or isotonic, thermodynamic from solid, 5% Dextrose
Procedure: The test compound is dissolved in an aqueous solution of 5% dextrose adjusted to the respective pH with 1n HCl. After shaking at room temperature for 24 h the probe is subjected to an ultra centrifugation process at 224000 g for 30 min. DMSO is added to the supernatant and the content of test compound is determined and quantified by HPLC employing a two point calibration curve of the test compound in DMSO.
HPLC Method: Agilent 1100 with DAD (G1315A), quat. Pump (G1311A), Autosampler CTC HTS PAL, Degaser (G1322A) and column thermostate (G1316A); Column: Zorbax Extend-C18 3.5μ; temperature: 40° C.; Eluent A: Water+5 ml Perchloric acid/1; Eluent B: Acetonitrile; flow rate: 0.7 mL/min; Gradient: 0-0.5 min 98% A, 2% B; Rampe: 0.5-4.5 min 10%, A 90% B; 4.5-6 min 10% A, 90% B; Rampe: 6.5-6.7 min 98% A, 2% B; 6.7-7.5 min 98% A, 2% B.

[2] = Stability in human plasma; assay type: in vitro ADME; conditions: within 1 hour
[3] = Stability in rat plasma; assay type: in vitro ADME; conditions: within 1 hour
[4] = Stability in buffer at different pH-values; assay type: physicochemical
Procedure: To determine the stability of test compounds at different pH-values 0.3 mg of the dry compound is dissolved in 0.5 ml of acetonitrile and the sample is sonified for 10 seconds. Then buffer solutions are added and the samples are sonified again.
pH 2: 0.03 M citric acid/0.0082 M hydrochloric acid/0.061 M sodium chloride pH 3: 0.04 M citric acid/0.021 M sodium hydroxide/0.06 M sodium chloride pH 4: 0.056 M citric acid/0.068 M sodium hydroxide/0.044 M Sodium chloride pH 5: 0.096 M citric acid/0.2 M sodium hydroxide pH 7: 0.029 M sodium hydroxide solution/0.05 M potassium dihydrogen phosphate pH 10: 0.013 M sodium tetraborate/0.018 M sodium hydroxide
The test compound concentrations in solution is analyzed by HPLC every hour during 24 hours at 37° C.
Agilent 1100 with DAD (G1314A), binary pump (G1312A), autosampler (G1329A), column thermostat (G1316A), thermostat (G1330A), Column: Kromasil 100 C18/60×2.1 mm/3.5 μm, Column temperature: 37° C., Eluent A: Water+5 ml perchloric acid/1, Eluent B: Acetonitrile, Gradient: 0-1.0 min 98% A, 2% B; 1.0-9.0 min 2% A, 98% B; 9.0-13.0 min 2% A, 98% B; 13.0-13.5 min 98% A, 2% B; 13.5-15.0 98% A, 2% B, Flow rate: 0.75 ml/min, Detection: 210 nm

[5] = system: H4 (human neuroglioma) cells; assay: Proliferation assay (CellTiter-Glo), H4; assay type: cell-based; conditions: n = 1
Procedure: (§1) SK-N-DZ (human neuroblastoma; ATCC# CRL-2149) or U118 MG (human glioblastoma/astrocytoma; ATCC# HTB-15) or U87 MG (human glioma; ATCC# HTB-14) or H4 (human neuroglioma; ATCC# HTB 178) cells are cultivated under standard conditions (RPMI 1640/Glutamax 2 mM/glucose 2 g/l/SoBicarbonate 2 g/1/10% FCS; 37° C. in 5% CO2 in a humid incubator). Cells are suspended using Accutase (PAA) and seeded at 1000 cells/Well in 100 μL medium/well in a 96-well plate (Greiner Kat. Nr. 655073). The test compound is added 24 Stunden after seeding. Commercial assays (CellTiter-Glo® Luminescent Cell Viability Assay; Promega Kat. Nr. G7571) are used 72 later according to the manufacturers instructions. IC50 is calculated using GraphPad Prism.
(§2) Compounds are solved in 100% DMSO and diluted 1:20 in medium before used diluted 1:10 in the test.

[6] = Crossing blood brain barrier in mice; assay type: in vivo, Male Ncr nude mice; conditions: 200 mg/kg orally for 14 days
Procedure: Male Ncr nude mice (n=3/time point) is treated for 14 days orally with a therapeutically relevant dose of example 153 (200 mg/kg) or a vehicle control (time: Oh). Daily treatment with a high dose like this is necessary to effectively treat subcutaneously transplanted tumors in these mice. After treatment, mice are sacrified at indicated time points, blood and brain tissue is removed and analysed. The method is as described above in example 2 under “Stability in rat and human plasma”. […] Mean brain concentrations are indicated as absolute concentration and relative to plasma concentration at similar time points (from the same experiment) in the table below.

[7] = system: U87 MG (human glioma) cells; assay: Proliferation assay (CellTiter-Glo), U87 MG; assay type: cell-based; conditions: U-87 MG, n = 2
Procedure: as §1, §2

[8] = system: SK-N-DZ (human neuroblastoma) cells; assay: Proliferation assay (CellTiter-Glo), SK-N-DZ; assay type: cell-based; conditions: 72 after compound addition, n = 4
Procedure: as §1, §2

[9] = system: U118 MG (human glioblastoma/astrocytoma) cells; assay: Proliferation assay (CellTiter-Glo), U118 MG; assay type: cell-based; conditions: U-118-MG, n = 4
Procedure: as §1, §2

- solubility at 24 h ([1]; aqueous 5% dextrose solution, parent compound, pH not stated): < 0.1 µg/mL
SMILES: CS(=O)(=O)NCc1cccc(-c2ccc3c(N)c(C(=O)c4ccc(Cl)cc4Cl)oc3c2)c1 [N-{3-[3-amino-2-(2,4-dichlorobenzoyl)-1-benzofuran-6-yl]benzyl}methanesulfonamide]

- degradation during solubility determination ([1]; 5% dextrose, 24 h room temperature): no degradation has been observed
- solubility thermodynamic at 24 h ([1]; aqueous 5% dextrose solution, pH 3, 24 h room temperature): 360 µg/mL
- solubility thermodynamic at 24 h ([1]; aqueous 5% dextrose solution, pH 4, 24 h room temperature): 350 µg/mL
- cleaved in plasma [2]: more than 90%
- cleaved in plasma [3]: more than 90%
- Amount of remaining compound ([4]; buffer pH 2, after 24 h at 37° C.): 100%
- Amount of remaining compound ([4]; buffer pH 3, after 24 h at 37° C.): 100%
- Amount of remaining compound ([4]; buffer pH 4, after 24 h at 37° C.): 94%
- Amount of remaining compound ([4]; buffer pH 5, after 24 h at 37° C.): 58%
- Amount of remaining compound ([4]; buffer pH 7, after 24 h at 37° C.): 4%
- Amount of remaining compound ([4]; buffer pH 10, after 24 h at 37° C.): 2%
SMILES: CC(C)[C@H](N)C(=O)N(Cc1cccc(-c2ccc3c(N)c(C(=O)c4ccc(Cl)cc4Cl)oc3c2)c1)S(C)(=O)=O.Cl [Example 366, N-{3-[3-amino-2-(2,4-dichlorobenzoyl)-1-benzofuran-6-yl]benzyl}-N-(methylsulfonyl)-L-valinamide, hydrochloride]

- IC50 [5]: 170 nM
- crossing of the blood brain barrier [6]: crosses the blood brain barrier
- brain concentration % of Plasma concentration ([6]; 0.167 h): 9-19%
- brain concentration % of Plasma concentration ([6]; 0.5 h): 17-18%
- brain concentration % of Plasma concentration ([6]; 1.5 h): 12-90%
- concentration at 0.167 h ([6]; male, Ncr nude, mouse, brain, po, 0.167 h): 600 ng/mL
- concentration at 0.5 h ([6]; male, Ncr nude, mouse, brain, po, 0.5 h): 1400 ng/mL
- concentration at 1.5 h ([6]; male, Ncr nude, mouse, brain, po, 1.5 h): 1000 ng/mL
- IC50 [7]: 320 nM
- IC50 [8]: 110 nM
- IC50 [9]: 120 nM
SMILES: CS(=O)(=O)NCc1cccc(-c2ccc3c(N)c(C(=O)c4ccc(Cl)cc4Cl)oc3c2)c1 [Example 153, N-{3-[3-amino-2-(2,4-dichlorobenzoyl)-1-benzofuran-6-yl]benzyl}methanesulfonamide]
